Assay: xn = mol fraction of the nth substance listed
Conditions: 101 kPa, Liquid; for viscosity: Concentric cylinders viscometry; for mass density: Vibrating tube method

COC(C)(C)C [2-methoxy-2-methylpropane] + CCCCO
Conditions	mass density, 293.15 K [kg/m3]	mass density, 298.15 K [kg/m3]	mass density, 303.15 K [kg/m3]	mass density, 308.15 K [kg/m3]	viscosity, 293.15 K [mPa·s]	viscosity, 298.15 K [mPa·s]	viscosity, 303.15 K [mPa·s]	viscosity, 308.15 K [mPa·s]
x1 = 0.0104	809.06	805.25	801.38	797.5	2.875	2.518	2.22	1.958
x1 = 0.0243	808.13	804.31	800.43	796.52	2.741	2.41	2.126	1.882
x1 = 0.0294	807.77	803.94	800.06	796.14	2.696	2.374	2.094	1.855
x1 = 0.0396	807.09	803.24	799.35	795.41	2.618	2.298	2.032	1.8
x1 = 0.0498	806.41	802.54	798.63	794.68	2.522	2.227	1.973	1.75
x1 = 0.0601	805.74	801.84	797.91	793.95	2.439	2.156	1.908	1.697
x1 = 0.0699	805.07	801.16	797.21	793.24	2.366	2.093	1.857	1.654
x1 = 0.0804	804.38	800.44	796.49	792.5	2.296	2.028	1.809	1.612
x1 = 0.0898	803.72	799.79	795.81	791.81	2.224	1.969	1.752	1.564
x1 = 0.1006	802.95	798.99	795	790.98	2.144	1.903	1.695	1.514
x1 = 0.1507	799.54	795.53	791.47	787.38	1.85	1.656	1.489	1.334
x1 = 0.1993	796.26	792.17	788.04	783.88	1.6	1.437	1.294	1.169
x1 = 0.2516	792.7	788.55	784.35	780.11	1.382	1.25	1.132	1.029
x1 = 0.3022	789.27	785.01	780.75	776.43	1.216	1.103	0.9992	0.9132
x1 = 0.3515	785.87	781.6	777.25	772.86	1.077	0.9815	0.893	0.8189
x1 = 0.4031	782.33	777.98	773.56	769.1	0.9523	0.8743	0.797	0.7323
x1 = 0.4497	779.15	774.73	770.24	765.7	0.8598	0.7902	0.7267	0.6743
x1 = 0.4999	775.69	771.23	766.66	762.05	0.7724	0.7125	0.6568	0.6081
x1 = 0.5485	772.39	767.84	763.2	758.52	0.6999	0.6476	0.5981	0.5512
x1 = 0.5953	769.2	764.57	759.86	755.11	0.6397	0.5937	0.5512	0.5073
x1 = 0.6445	765.82	761.14	756.35	751.52	0.585	0.5452	0.506	0.4692
x1 = 0.6999	762	757.24	752.37	747.46	0.53	0.4937	0.4595	0.4236
x1 = 0.7466	758.77	753.92	748.98	744	0.4912	0.4586	0.4275	0.395
x1 = 0.8067	754.66	749.65	744.63	739.55	0.4474	0.4167	0.3876	0.3578
x1 = 0.8404	752.26	747.22	742.14	737.01	0.4251	0.3961	0.3679	0.3465
x1 = 0.8695	750.22	745.15	740.03	734.85	0.408	0.3799	0.3544	0.3327
x1 = 0.8983	748.09	743	737.86	732.64	0.3889	0.3651	0.3371	0.3165
x1 = 0.9092	747.32	742.21	737.05	731.8	0.3832	0.3591	0.3333	0.3137
x1 = 0.9188	746.62	741.51	736.33	731.09	0.3778	0.3547	0.3301	0.3112
x1 = 0.9299	745.83	740.69	735.5	730.24	0.3717	0.3493	0.3249	0.305
x1 = 0.9398	745.11	739.96	734.74	729.47	0.3683	0.3491	0.329	0.3048
x1 = 0.9492	744.42	739.25	734.03	728.76	0.3654	0.3479	0.3225	0.3006
x1 = 0.9607	743.59	738.39	733.15	727.86	0.358	0.3391	0.3169	0.2958
x1 = 0.9697	742.97	737.75	732.49	727.18	0.356	0.331	0.3107	0.2998
x1 = 0.9796	742.24	737.01	731.74	726.41	0.3489	0.3267	0.3076	0.2964
x1 = 0.9902	741.47	736.22	730.94	725.59	0.3456	0.3214	0.2976	0.2892
